Measurements reported in patent US20240247015A1, “PHOSPHORUS DERIVATIVES AS NOVEL SOS1 INHIBITORS” (BAYER AKTIENGESELLSCHAFT, priority 2021, published 2024).

Target: interaction of human SOS1 (SOS1) with human K-RasG12C (Homo sapiens (Human), UniProt Q07889)
Test: Biochemical assay: hK-RasG12C interaction assay with hSOS1 (HTRF)
Assay type: binding
Conditions: GST-hK-RasG12C with His-hSOS1, 60 min incubation at 20° C., mean, read-out: K-RasG12C - SOS interaction assay IC50 (mean)
Protocol: Biochemical Assay: hK-RasG12C Interaction Assay with hSOS1 This assay quantifies the equilibrium interaction of human SOS1 (SOS1) with human K-Ras^G12^C (K-RasG12C). Detection of the interaction is achieved by measuring homogenous time-resolved fluorescence resonance energy transfer (HTRF) from antiGST-Europium (FRET donor) bound to GST-K-RasG12C to anti-6His-XL665 bound to His-tagged hSOS1 (FRET-acceptor). The assay buffer containes 5 mM HEPES pH 7.4 (Applichem), 150 mM NaCl (Sigma), […] (Promega), 1 mM DTT (Thermofisher), 0.05% BSA Fraction V, pH 7.0, (ICN Biomedicals), 0.0025% (v/v) Igepal (Sigma) and 100 mM KF (FLUKA). The expression and purification of N-terminally GST-tagged human K-RasG12C (termed GST-hK-RasG12C) and N-terminally His-tagged human SOS1 (termed His10-hSOS1) is described in WO 2019/201848, page 220 line 12-34 and page 222, line 13-25 (expression) and page 222, line 26 to page 223, line 17 (purification). Concentrations of protein batches used are optimized to be within the linear range of the HTRF signal. A Ras working solution is prepared in assay buffer containing typically 10 nM GST-hK-RasG12C and 2 nM antiGST-Eu(K) (Cisbio, France). A SOS1 working solution is prepared in assay buffer containing typically 20 nM His-hSOS1 and 10 nM anti-6His-XL665 (Cisbio, France). An inhibitor control solution is prepared in assay buffer containing nM anti-6His-XL665 without SOS1. Fifty nl of a 100-fold concentrated solution of the test compound in DMSO are transferred into a black microtiter test plate (384 or 1536, Greiner Bio-One, Germany). For this, either a Hummingbird liquid handler (Digilab, MA, USA) or an Echo acoustic system (Labcyte, CA, USA) is used. All steps of the assay are performed at 20° C. A volume of 2.5 μl of the Ras working solution is added to all wells of the test plate using a Multidrop dispenser (Thermo Labsystems). After 2 min preincubation, 2.5 μl of the SOS1 working solution are added to all wells except for those wells at the side of the test plate that are subsequently filled with 2.5 μl of the inhibitor control solution. After 60 min incubation the fluorescence is measured with a Pherastar (BMG, Germany) using the HTRF module (excitation 337 nm, emission 1: 620 nm, emission 2: 665 nm). The ratiometric data (emission 2 divided by emission 1) are normalized using the controls (DMSO=0% inhibition, inhibition control wells with inhibitor control solution=100% inhibition). Compounds are tested in duplicates at up to 11 concentrations (for 20 μM, 5,7 μM, 1,6 μM, 0.47 μM, 0.13 μM, 38 nM, 11 nM, 3.1 nM, 0.89 nM, 0.25 nM and 0.073 nM). IC50 values are calculated by 4-Parameter fitting using a commercial software package (Genedata Screener, Switzerland).

Sequence of interaction of human SOS1 (SOS1) with human K-RasG12C (Q07889 564-1049 limits assumed): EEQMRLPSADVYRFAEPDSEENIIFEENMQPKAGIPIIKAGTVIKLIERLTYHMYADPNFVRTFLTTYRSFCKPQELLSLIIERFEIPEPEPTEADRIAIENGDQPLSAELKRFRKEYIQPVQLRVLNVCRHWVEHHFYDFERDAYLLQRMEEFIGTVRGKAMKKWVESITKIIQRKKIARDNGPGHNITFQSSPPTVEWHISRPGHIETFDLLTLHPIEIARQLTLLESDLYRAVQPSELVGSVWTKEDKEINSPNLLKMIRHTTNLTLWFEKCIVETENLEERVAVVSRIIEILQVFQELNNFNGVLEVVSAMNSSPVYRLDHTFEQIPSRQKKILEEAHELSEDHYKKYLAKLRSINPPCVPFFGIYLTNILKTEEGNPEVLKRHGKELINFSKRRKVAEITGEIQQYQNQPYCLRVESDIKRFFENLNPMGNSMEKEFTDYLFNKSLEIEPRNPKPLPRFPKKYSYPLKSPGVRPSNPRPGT

Compound | IC50
Cc1nc(N[C@H](C)c2cccc(C(F)(F)C(C)O)c2F)c2cc(P(C)(=O)C(C)C)ncc2n1 (single isomer, unassigned) [Example 84, (2R*)-1,1-difluoro-1-{2-fluoro-3-[(1R)-1-({2-methyl-6-[methyl(propan-2-yl)phosphoryl]pyrido[3,4-d]pyrimidin-4-yl}amino)ethyl]phenyl}propan-2-ol] | 24.1 nM
Cc1nc(N[C@H](C)c2cccc(C(F)F)c2F)c2cc(P(C)(=O)C(C)C)ncc2n1 (single isomer, unassigned) [Example 116] | 57.6 nM
CCP(C)(=O)c1cc2c(N[C@H](C)c3cccc(C(F)F)c3F)nc(C)nc2cn1 (single isomer, unassigned) [Example 118] | 56.5 nM
CCP(C)(=O)c1cc2c(N[C@H](C)c3cccc(C(F)F)c3F)nc(C)nc2cn1 (single isomer, unassigned) [Example 119] | 42.9 nM
Cc1nc(N[C@H](C)c2cccc(C(F)(F)CO)c2F)c2cc(P(C)(=O)C(C)C)ncc2n1 (single isomer, unassigned) [Example 135] | 17 nM
CCP(=O)(CC)c1cc2c(N[C@H](C)c3cccc(C(F)(F)C(C)O)c3F)nc(C)nc2cn1 (stereo in doubt) [Example 90, (2R*)-1-{3-[(1R)-1-{[6-(diethylphosphoryl)-2-methylpyrido[3,4-d]pyrimidin-4-yl]amino}ethyl]-2-fluorophenyl}-1,1-difluoropropan-2-ol] | 26.6 nM
Cc1nc(N[C@H](C)c2cccc(C(F)(F)C(O)C(C)(C)C)c2F)c2cc(P(C)(C)=O)ncc2n1 (stereo in doubt) [Example 136, (2R*)-1-{3-[(1R)-1-{[6-(dimethylphosphoryl)-2-methylpyrido[3,4-d]pyrimidin-4-yl]amino}ethyl]-2-fluorophenyl}-1,1-difluoro-3,3-dimethylbutan-2-ol] | 38.9 nM
Cc1nc(N[C@H](C)c2cccc(C(F)(F)F)c2C)c2cc(P(C)(C)=O)ncc2n1 [Example 1, 6-(dimethylphosphoryl)-2-methyl-N-{(1R)-1-[2-methyl-3-(trifluoromethyl)phenyl]ethyl}pyrido[3,4-d]pyrimidin-4-amine] | 20.6 nM
Cc1nc(N[C@H](C)c2cccc(C(F)F)c2F)c2cc(P(C)(C)=O)ncc2n1 [Example 2, N-{(1R)-1-[3-(difluoromethyl)-2-fluorophenyl]ethyl}-6-(dimethylphosphoryl)-2-methylpyrido[3,4-d]pyrimidin-4-amine] | 50.8 nM
Cc1nc(N[C@H](C)c2cccc(C(F)(F)C(C)(C)O)c2F)c2cc(P(C)(C)=O)ncc2n1 [Example 3, 1-{3-[(1R)-1-{[6-(dimethylphosphoryl)-2-methylpyrido[3,4-d]pyrimidin-4-yl]amino}ethyl]-2-fluorophenyl}-1,1-difluoro-2-methylpropan-2-ol] | 19.1 nM
Cc1nc(N[C@H](C)c2cccc(C(F)(F)C(C)(C)O)c2F)c2cc(P3(=O)CCCC3)ncc2n1 [Example 4, 1-[4-({(1R)-1-[3-(1,1-difluoro-2-hydroxy-2-methylpropyl)-2-fluorophenyl]ethyl}amino)-2-methylpyrido[3,4-d]pyrimidin-6-yl]-1lambda^5-phospholan-1-one] | 12.8 nM
CC(=O)N1CCP(=O)(c2cc3c(N[C@H](C)c4cccc(C(F)(F)F)c4C)nc(C)nc3cn2)CC1 [Example 7, 1-acetyl-4-[2-methyl-4-({(1R)-1-[2-methyl-3-(trifluoromethyl)phenyl]ethyl}amino)pyrido[3,4-d]pyrimidin-6-yl]-1,4lambda^5-azaphosphinan-4-one] | 6.24 nM
Cc1nc(N[C@H](C)c2cccc(C(F)F)c2F)c2cc(P3(=O)CCN(Cc4ccccc4)CC3)ncc2n1 [Example 8, 1-benzyl-4-[4-({(1R)-1-[3-(difluoromethyl)-2-fluorophenyl]ethyl}amino)-2-methylpyrido[3,4-d]pyrimidin-6-yl]-1,4lambda^5-azaphosphinan-4-one] | 94 nM

Further molecules by falling IC50, results first:

IC50 | Compound
261 nM | Cc1nc(N[C@H](C)c2cccc(C(F)(F)F)c2C)c2cc(P3(=O)CCN(Cc4ccccc4)CC3)ncc2n1 [Example 5, 1-benzyl-4-[2-methyl-4-({(1R)-1-[2-methyl-3-(trifluoromethyl)phenyl]ethyl}amino)pyrido[3,4-d]pyrimidin-6-yl]-1,4lambda^5-azaphosphinan-4-one]
80.3 nM | Cc1nc(N[C@H](C)c2cccc(C(F)F)c2F)c2cc(P(C)(=O)C(C)C)ncc2n1 (single isomer, unassigned) [Example 115]
36.6 nM | Cc1nc(N[C@H](C)c2cccc(C(F)(F)C(C)O)c2F)c2cc(P(C)(C)=O)ncc2n1 (stereo in doubt) [Example 86, (2R*)-1-{3-[(1R)-1-{[6-(dimethylphosphoryl)-2-methylpyrido[3,4-d]pyrimidin-4-yl]amino}ethyl]-2-fluorophenyl}-1,1-difluoropropan-2-ol]
31 nM | Cc1nc(N[C@H](C)c2cccc(C(F)(F)C(C)O)c2F)c2cc(P(C)(=O)C(C)C)ncc2n1 (single isomer, unassigned) [Example 83, (2R*)-1,1-difluoro-1-{2-fluoro-3-[(1R)-1-({2-methyl-6-[methyl(propan-2-yl)phosphoryl]pyrido[3,4-d]pyrimidin-4-yl}amino)ethyl]phenyl}propan-2-ol]
25.2 nM | Cc1nc(N[C@H](C)c2cccc(C(F)(F)CO)c2F)c2cc(P(C)(=O)C(C)C)ncc2n1 (single isomer, unassigned) [Example 134]
24.5 nM | Cc1nc(N[C@H](C)c2cccc(C(F)(F)C(C)O)c2F)c2cc(P(C)(=O)C(C)C)ncc2n1 (single isomer, unassigned) [Example 82, (2R*)-1,1-difluoro-1-{2-fluoro-3-[(1R)-1-({2-methyl-6-[methyl(propan-2-yl)phosphoryl]pyrido[3,4-d]pyrimidin-4-yl}amino)ethyl]phenyl}propan-2-ol]
22.3 nM | Cc1nc(N[C@H](C)c2cccc(C(F)F)c2F)c2cc(P3(=O)CCNCC3)ncc2n1 [Example 9, 4-[4-({(1R)-1-[3-(difluoromethyl)-2-fluorophenyl]ethyl}amino)-2-methylpyrido[3,4-d]pyrimidin-6-yl]-1,4lambda^5-azaphosphinan-4-one]
21.5 nM | Cc1nc(N[C@H](C)c2cccc(C(F)(F)C(C)O)c2F)c2cc(P3(=O)CCCC3)ncc2n1 (single isomer, unassigned) [Example 111, 1-(4-{[(1R)-1-{3-[(2R*)-1,1-difluoro-2-hydroxypropyl]-2-fluorophenyl}ethyl]amino}-2-methylpyrido[3,4-d]pyrimidin-6-yl)-1lambda^5-phospholan-1-one]
11.7 nM | CCP(C)(=O)c1cc2c(N[C@H](C)c3cccc(C(F)(F)CO)c3F)nc(C)nc2cn1 (single isomer, unassigned) [Example 132]
11.5 nM | CCP(C)(=O)c1cc2c(N[C@H](C)c3cccc(C(F)(F)CO)c3F)nc(C)nc2cn1 (single isomer, unassigned) [Example 131]
11.2 nM | Cc1nc(N[C@H](C)c2cccc(C(F)(F)C(C)O)c2F)c2cc(P3(=O)CCCC3)ncc2n1 (single isomer, unassigned) [Example 112, 1-(4-{[(1R)-1-{3-[(2R*)-1,1-difluoro-2-hydroxypropyl]-2-fluorophenyl}ethyl]amino}-2-methylpyrido[3,4-d]pyrimidin-6-yl)-1lambda^5-phospholan-1-one]
6.06 nM | CCC(O)C(F)(F)c1cccc([C@@H](C)Nc2nc(C)nc3cnc(P(C)(C)=O)cc23)c1F (single isomer, unassigned) [Example 89, (2R*)-1-{3-[(1R)-1-{[6-(dimethylphosphoryl)-2-methylpyrido[3,4-d]pyrimidin-4-yl]amino}ethyl]-2-fluorophenyl}-1,1-difluorobutan-2-ol]
2.86 nM | Cc1nc(N[C@H](C)c2cccc(C(F)(F)C(O)C(C)C)c2F)c2cc(P(C)(C)=O)ncc2n1 (single isomer, unassigned) [Example 87, (2R*)-1-{3-[(1R)-1-{[6-(dimethylphosphoryl)-2-methylpyrido[3,4-d]pyrimidin-4-yl]amino}ethyl]-2-fluorophenyl}-1,1-difluoro-3-methylbutan-2-ol]
